Structures are written as SMILES.

What is called IC50 is the concentration that inhibits the measured activity by half. A higher IC50 goes with weaker potency.

In experiment [1] the target is intracellular GCN2 (phosphorylation of the GCN2 substrate eIF2α) (Homo sapiens, UniProt Q9P2K8). Put plainly: GCN2 cellular inhibition assay (AlphaScreen SureFire P-eIF2α Ser51, borrelidin-treated U2OS cells). The experiment is classed as cell-based. As to conditions: compounds of Formula IV; biomarker assay, phosphorylated eIF2α Ser51 in borrelidin-treated U2OS cells. A digest of the protocol:
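U2OS cells, adhered overnight, received compounds in 4-fold serial dilutions from 40 μM final, then 10 μM borrelidin for 1 h at 37 °C. Lysates were read by AlphaScreen for phospho-eIF2α Ser51; percent inhibition was set against borrelidin-only wells.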
(In general: Alpha assays give light when donor and acceptor beads are brought close together.)

A further experiment concerns the target GCN2 kinase (Homo sapiens, UniProt Q9P2K8). Put plainly: GCN2 enzyme inhibition assay (Transcreener ADP2 fluorescence polarization). The experiment is classed as biochemical. The following applies: Enzyme activity for compounds of Formula IV; Ki(app), 280 μM ATP, 25° C. The procedure, abridged: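 Kinase activity is followed as ADP formation, measured by fluorescence polarization, using 4 nM enzyme with 280 μM ATP and 200 μM (RS)7 peptide at pH 7.5 and 25 °C for 1 h. Values come from a non-linear tight-binding fit.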
(Fluorescence polarisation rises when a labelled molecule tumbles more slowly, as on binding a larger partner.)

Sequence of GCN2 kinase (Q9P2K8 whole entry): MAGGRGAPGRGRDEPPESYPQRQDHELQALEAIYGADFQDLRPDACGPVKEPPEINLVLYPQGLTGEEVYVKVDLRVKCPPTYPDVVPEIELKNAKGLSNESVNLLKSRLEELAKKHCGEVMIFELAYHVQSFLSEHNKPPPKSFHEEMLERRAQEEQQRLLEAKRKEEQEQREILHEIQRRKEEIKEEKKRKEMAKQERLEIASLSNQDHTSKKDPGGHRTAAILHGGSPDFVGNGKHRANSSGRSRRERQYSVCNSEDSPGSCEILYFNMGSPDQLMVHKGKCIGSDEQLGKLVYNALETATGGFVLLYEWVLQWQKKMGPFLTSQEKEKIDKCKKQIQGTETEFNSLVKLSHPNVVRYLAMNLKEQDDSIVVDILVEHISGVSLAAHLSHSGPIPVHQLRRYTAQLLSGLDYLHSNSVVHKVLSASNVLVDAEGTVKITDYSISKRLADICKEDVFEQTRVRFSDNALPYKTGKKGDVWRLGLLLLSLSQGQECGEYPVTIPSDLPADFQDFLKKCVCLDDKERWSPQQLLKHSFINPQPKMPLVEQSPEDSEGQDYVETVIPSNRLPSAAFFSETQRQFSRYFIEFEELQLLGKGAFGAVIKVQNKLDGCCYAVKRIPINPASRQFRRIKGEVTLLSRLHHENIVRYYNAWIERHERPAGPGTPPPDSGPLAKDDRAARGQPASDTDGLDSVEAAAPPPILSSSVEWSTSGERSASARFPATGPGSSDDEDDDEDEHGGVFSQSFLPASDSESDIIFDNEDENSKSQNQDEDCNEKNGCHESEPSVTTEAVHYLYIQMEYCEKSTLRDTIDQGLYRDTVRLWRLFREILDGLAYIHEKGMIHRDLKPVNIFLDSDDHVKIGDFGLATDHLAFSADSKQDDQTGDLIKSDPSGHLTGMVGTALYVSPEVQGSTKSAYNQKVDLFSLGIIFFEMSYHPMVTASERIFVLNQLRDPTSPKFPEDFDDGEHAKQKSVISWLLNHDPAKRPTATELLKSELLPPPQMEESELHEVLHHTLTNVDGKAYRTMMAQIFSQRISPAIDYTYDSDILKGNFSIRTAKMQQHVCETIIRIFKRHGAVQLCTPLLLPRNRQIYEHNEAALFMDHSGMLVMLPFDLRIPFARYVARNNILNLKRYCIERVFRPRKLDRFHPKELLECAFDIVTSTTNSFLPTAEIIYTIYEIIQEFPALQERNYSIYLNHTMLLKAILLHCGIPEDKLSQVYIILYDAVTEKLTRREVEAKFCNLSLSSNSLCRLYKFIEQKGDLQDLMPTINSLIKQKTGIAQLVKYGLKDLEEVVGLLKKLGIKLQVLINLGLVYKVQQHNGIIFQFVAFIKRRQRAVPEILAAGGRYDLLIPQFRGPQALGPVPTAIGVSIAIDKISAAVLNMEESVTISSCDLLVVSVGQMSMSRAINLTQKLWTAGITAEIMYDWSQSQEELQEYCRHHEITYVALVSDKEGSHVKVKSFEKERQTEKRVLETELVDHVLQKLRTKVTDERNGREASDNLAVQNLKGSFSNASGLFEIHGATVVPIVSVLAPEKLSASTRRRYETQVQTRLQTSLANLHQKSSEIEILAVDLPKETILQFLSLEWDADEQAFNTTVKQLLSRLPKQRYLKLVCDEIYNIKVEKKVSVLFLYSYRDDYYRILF
Sequence of intracellular GCN2 (phosphorylation of the GCN2 substrate eIF2α) (Q9P2K8 whole entry): as above

For the compound `CC1CN(c2ccnc(-c3cnc4cnc(C(F)(F)F)cn34)n2)CC(c2cn[nH]c2)O1` (single isomer, unassigned) [IV-13, 2-Methyl-6-(1H-pyrazol-4-yl)-4-(2-(6-(trifluoromethyl)imidazo[1,2-a]pyrazin-3-yl)pyrimidin-4-yl)morpholine], in experiment [1], the concentration for half-maximal inhibition (IC50) is < 500 nM. Besides, on GCN2 kinase, the Ki lay in the range of 10 to 100 nM.
For `CC1CN(c2ccnc(-c3cnc4cnc(C(F)(F)F)cn34)n2)CC(c2cn[nH]c2)O1` (single isomer, unassigned) [IV-14, 2-Methyl-6-(1H-pyrazol-4-yl)-4-(2-(6-(trifluoromethyl)imidazo[1,2-a]pyrazin-3-yl)pyrimidin-4-yl)morpholine] the same measures were < 500 nM and < 10 nM.
Turning to `CC1CN(c2ccnc(-c3cnc4cnc(C(F)(F)F)cn34)n2)CC(c2cn[nH]c2)O1` (single isomer, unassigned) [IV-15, 2-Methyl-6-(1H-pyrazol-4-yl)-4-(2-(6-(trifluoromethyl)imidazo[1,2-a]pyrazin-3-yl)pyrimidin-4-yl)morpholine], the IC50 in experiment [1] is 500 to 5000 nM. Moreover, the Ki at GCN2 kinase lay in the range of 10 to 100 nM.
For `CC1CN(c2ccnc(-c3cnc4cnc(C(F)(F)F)cn34)n2)CC(c2cn[nH]c2)O1` (single isomer, unassigned) [IV-16, 2-Methyl-6-(1H-pyrazol-4-yl)-4-(2-(6-(trifluoromethyl)imidazo[1,2-a]pyrazin-3-yl)pyrimidin-4-yl)morpholine] the same measures were 500 to 5000 nM and 10 to 100 nM.
With `CC1CN(c2ccnc(-c3cnc4cnc(C#N)cn34)n2)CC(c2cn[nH]c2)O1` (single isomer, unassigned) [IV-191, 3-(4-(2-Methyl-6-(1H-pyrazol-4-yl)morpholino)pyrimidin-2-yl)imidazo[1,2-a]pyrazine-6-carbonitrile], the IC50 in experiment [1] fell in the range of 500 to 5000 nM. Also, the Ki on GCN2 kinase fell in the range of 10 to 100 nM.
With `CC1CN(c2ccnc(-c3cnc4cnc(Cl)cn34)n2)CC(c2cn[nH]c2)O1` (single isomer, unassigned) [IV-192, 4-(2-(6-Chloroimidazo[1,2-a]pyrazin-3-yl)pyrimidin-4-yl)-2-methyl-6-(1H-pyrazol-4-yl)morpholine], the IC50 in experiment [1] lay within 500 to 5000 nM. At GCN2 kinase, the Ki is < 10 nM.
For the compound `CC1CN(c2nccc(-c3cnc4cnc(C(F)(F)F)cn34)n2)CC(c2cn[nH]c2)O1` (single isomer, unassigned) [IV-199, 2-Methyl-6-(1H-pyrazol-4-yl)-4-(4-(6-(trifluoromethyl)imidazo[1,2-a]pyrazin-3-yl)pyrimidin-2-yl)morpholine], in experiment [1], the IC50 fell in the range of 500 to 5000 nM. This compound registered a Ki on GCN2 kinase of 10 to 100 nM.
As for `CC1CN(c2nccc(-c3cnc4cnc(C(F)(F)F)cn34)n2)CC(c2cn[nH]c2)O1` (single isomer, unassigned) [IV-200, 2-Methyl-6-(1H-pyrazol-4-yl)-4-(4-(6-(trifluoromethyl)imidazo[1,2-a]pyrazin-3-yl)pyrimidin-2-yl)morpholine], the IC50 in experiment [1] is 500 to 5000 nM. Also, at GCN2 kinase, the Ki was < 10 nM.
Consider `CC1CN(c2nccc(-c3cnc4cnc(C(F)(F)F)cn34)n2)CC(c2cn[nH]c2)O1` (single isomer, unassigned) [IV-201, 2-Methyl-6-(1H-pyrazol-4-yl)-4-(4-(6-(trifluoromethyl)imidazo[1,2-a]pyrazin-3-yl)pyrimidin-2-yl)morpholine], for which the IC50 in experiment [1] is < 500 nM. Moreover, the Ki at GCN2 kinase was < 10 nM.
In experiment [1], `CC1CN(c2nccc(-c3cnc4cnc(C(F)(F)F)cn34)n2)CC(c2cn[nH]c2)O1` (single isomer, unassigned) [IV-202, 2-Methyl-6-(1H-pyrazol-4-yl)-4-(4-(6-(trifluoromethyl)imidazo[1,2-a]pyrazin-3-yl)pyrimidin-2-yl)morpholine] came in with a half-inhibitory concentration (IC50) of 500 to 5000 nM. This compound also showed a Ki on GCN2 kinase of 10 to 100 nM.
Take `CC1CN(c2ccnc(-c3cnc4cnc(Cl)cn34)n2)CC(c2cn[nH]c2)N1` (single isomer, unassigned) [IV-213, 6-Chloro-3-(4-(3-methyl-5-(1H-pyrazol-4-yl)piperazin-1-yl)pyrimidin-2-yl)imidazo[1,2-a]pyrazine]: the IC50 in experiment [1] was 500 to 5000 nM. Besides, the Ki at GCN2 kinase lay in the range of 10 to 100 nM.
In the same order, the values of `CC1CN(c2ccnc(-c3cnc4cnc(Cl)cn34)n2)CC(c2cn[nH]c2)N1` (single isomer, unassigned) [IV-214, 6-Chloro-3-(4-(3-methyl-5-(1H-pyrazol-4-yl)piperazin-1-yl)pyrimidin-2-yl)imidazo[1,2-a]pyrazine] are < 500 nM and < 10 nM.
Compound `CC1CN(c2ccnc(-c3cnc4cnc(Cl)cn34)n2)CC(c2cn[nH]c2)O1` (single isomer, unassigned) [IV-216, 4-(2-(6-Chloroimidazo[1,2-a]pyrazin-3-yl)pyrimidin-4-yl)-2-methyl-6-(1H-pyrazol-4-yl)morpholine] came in with an IC50 in experiment [1] of 500 to 5000 nM. Moreover, on GCN2 kinase, the Ki is < 10 nM.
With `CC1CN(c2ccnc(-c3cnc4cnc(Cl)cn34)n2)CC(c2cn[nH]c2)O1` (single isomer, unassigned) [IV-217, 4-(2-(6-Chloroimidazo[1,2-a]pyrazin-3-yl)pyrimidin-4-yl)-2-methyl-6-(1H-pyrazol-4-yl)morpholine], the IC50 in experiment [1] is < 500 nM. The Ki at GCN2 kinase is < 10 nM.
For `CC1C(c2cn[nH]c2)NCCN1c1ccnc(-c2cnc3cnc(Cl)cn23)n1` (single isomer, unassigned) [IV-230, 6-Chloro-3-(4-(2-methyl-3-(1H-pyrazol-4-yl)piperazin-1-yl)pyrimidin-2-yl)imidazo[1,2-a]pyrazine] the same measures were 500 to 5000 nM and < 10 nM.
Turning to `CC1C(c2cn[nH]c2)OCCN1c1ccnc(-c2cnc3cnc(Cl)cn23)n1` (single isomer, unassigned) [IV-245, 4-(2-(6-Chloroimidazo[1,2-a]pyrazin-3-yl)pyrimidin-4-yl)-3-methyl-2-(1H-pyrazol-4-yl)morpholine], the IC50 in experiment [1] was > 5000 nM. In addition, the Ki on GCN2 kinase lay within 100 to 1000 nM.
As for `CC1CN(c2ccnc(-c3cnc4cnc(Cl)cn34)n2)C(C)C(c2cn[nH]c2)N1` (single isomer, unassigned) [IV-247, 6-Chloro-3-(4-(2,5-dimethyl-3-(1H-pyrazol-4-yl)piperazin-1-yl)pyrimidin-2-yl)imidazo[1,2-a]pyrazine], the IC50 in experiment [1] is < 500 nM. In addition, the Ki on GCN2 kinase is < 10 nM.
In the case of `CC1CN(c2ccnc(-c3cnc4cnc(Br)cn34)n2)C(C)C(c2cn[nH]c2)N1` (single isomer, unassigned) [IV-288, 6-Bromo-3-(4-(2,5-dimethyl-3-(1H-pyrazol-4-yl)piperazin-1-yl)pyrimidin-2-yl)imidazo[1,2-a]pyrazine], the IC50 in experiment [1] is < 500 nM. Also, the Ki on GCN2 kinase was < 10 nM.
In the case of `CC1CC(c2cn[nH]c2)C(C)N(c2ccnc(-c3cnc4cnc(C(F)(F)F)cn34)n2)C1` (single isomer, unassigned) [IV-311], the IC50 in experiment [1] is < 500 nM. The Ki at GCN2 kinase was < 10 nM.
Regarding `CC1C(c2cn[nH]c2)OCCN1c1ccnc(-c2cnc3cnc(C(F)(F)F)cn23)n1` (single isomer, unassigned) [IV-318, 3-Methyl-2-(1H-pyrazol-4-yl)-4-(2-(6-(trifluoromethyl)imidazo[1,2-a]pyrazin-3-yl)pyrimidin-4-yl)morpholine], the IC50 in experiment [1] is < 500 nM. The Ki at GCN2 kinase was < 10 nM.
For the compound `CC1CN(c2ccnc(-c3cnc4cnc(C(F)(F)F)cn34)n2)C(C)C(c2cn[nH]c2)N1` (single isomer, unassigned) [IV-345, 3-(4-(2,5-Dimethyl-3-(1H-pyrazol-4-yl)piperazin-1-yl)pyrimidin-2-yl)-6-(trifluoromethyl)imidazo[1,2-a]pyrazine], the IC50 in experiment [1] lay in the range of 500 to 5000 nM. At GCN2 kinase, this compound had a Ki of 10 to 100 nM.
In turn, `CC1C(c2cn[nH]c2)NCCN1c1ccnc(-c2cnc3cnc(Br)cn23)n1` (single isomer, unassigned) [IV-350, 6-Bromo-3-(4-(2-methyl-3-(1H-pyrazol-4-yl)piperazin-1-yl)pyrimidin-2-yl)imidazo[1,2-a]pyrazine] showed an IC50 in experiment [1] of 500 to 5000 nM. Also, on GCN2 kinase, the Ki was 100 to 1000 nM.
For `CC1C(c2cn[nH]c2)NCCN1c1ccnc(-c2cnc3cnc(Br)cn23)n1` (single isomer, unassigned) [IV-351, 6-Bromo-3-(4-(2-methyl-3-(1H-pyrazol-4-yl)piperazin-1-yl)pyrimidin-2-yl)imidazo[1,2-a]pyrazine] the same measures were < 500 nM and < 10 nM.
For the compound `CC1C(c2cn[nH]c2)NCCN1c1ccnc(-c2cnc3cnc(C(F)(F)F)cn23)n1` (single isomer, unassigned) [IV-357, 3-(4-(2-Methyl-3-(1H-pyrazol-4-yl)piperazin-1-yl)pyrimidin-2-yl)-6-(trifluoromethyl)imidazo[1,2-a]pyrazine], the IC50 in experiment [1] is > 5000 nM. Besides, the Ki on GCN2 kinase lay within 100 to 1000 nM.
Compound `CC1C(c2cn[nH]c2)NCCN1c1ccnc(-c2cnc3cnc(C(F)(F)F)cn23)n1` (single isomer, unassigned) [IV-358, 3-(4-(2-Methyl-3-(1H-pyrazol-4-yl)piperazin-1-yl)pyrimidin-2-yl)-6-(trifluoromethyl)imidazo[1,2-a]pyrazine] gave a half-inhibitory concentration (IC50) in experiment [1] of 500 to 5000 nM. In addition, the Ki on GCN2 kinase was < 10 nM.
For `Brc1cn2c(-c3nccc(N4CCCC(c5cn[nH]c5)C4)n3)cnc2cn1` (single isomer, unassigned) [IV-360, 3-(4-(3-(1H-Pyrazol-4-yl)piperidin-1-yl)pyrimidin-2-yl)-6-bromoimidazo[1,2-a]pyrazine] the same measures were < 500 nM and < 10 nM.
